Source: patent publication US6376649B1, “Methods for the synthesis of α- hydroxy-β-amino acid and amide derivatives” (Corvas International, Inc., priority 1998, dated 2002)

Molecular target: thrombin (Homo sapiens, UniProt P00734)
Test: standard in vitro assays of thrombin inhibitory activity and selectivity
Format: biochemical
Details: standard in vitro assays designed to measure inhibitory activity and selectivity toward thrombin versus other proteases

In the case of “BnSO2-7Lac—G—R(.TFA)(CO))—Gly—OEt [16-5]”, the thrombin inhibitory activity is reported as “thrombin inhibitory activity”.
